Assay results: ChEMBL document CHEMBL4219070, “Probing biological activity through structural modelling of ligand-receptor interactions of 2,4-disubstituted thiazole retinoids” (Bioorg Med Chem, 2018)
Active and inactive are the calls of the source. The calls are words filed in the database; no cut-off is given here.

Experiments:
Homo sapiens = species on record: Homo sapiens; assay: Induction of neuronal differentiation in human TERA2.cl.SP12 cells assessed as small and scattered colonies of TUJ-1 positive cells at 10 uM measured measured after 2 weeks by immunofluorescence method; type: functional, cell-based
SH-SY5Y = assay: Induction of neuronal differentiation in human SH-SY5Y cells assessed as increase in RARbeta mRNA expression at 0.001 to 1 uM measured after 8 hrs by RT-PCR analysis; type: functional, cell-based

SMILES	Activity (Homo sapiens)	Activity (SH-SY5Y)
CCOCCOc1nc(-c2ccc(C(=O)O)cc2)sc1C	Active	Active
CCOC(=O)c1ccc(-c2nc(-c3ccccc3)c(C)s2)cc1	Active	
CC1=C(/C=C/C(C)=C/C=C/C(C)=C/C(=O)O)C(C)(C)CCC1		Active
